The values that follow come from article PMC7461115, “Contribution of KCNQ and TREK Channels to the Resting Membrane Potential in Sympathetic Neurons at Physiological Temperature” (International Journal of Molecular Sciences, 2020).

Broadly, the IC50 is the concentration at which inhibition is half-maximal. A high value points to lower potency. A word on the inhibition: it is the drop in the measured response relative to a control, in per cent.

The target of assay [1] is T1, TREK-2 (native riluzole-activated current IRIL in mouse SCG neurons) (Mus musculus, UniProt Q8BUW1).
T1 construct: gene Kcnk10; TREK-1 and TRAAK are also expressed at lower level
The assay can be described thus: perforated-patch whole-cell voltage clamp, inhibition of riluzole-activated current. Format: cell-based. The following applies: riluzole 300 µM activator, TEA 15 mM, TTX 0.5 µM, CsCl 1 mM, -30 mV, room temperature, Hill coefficient 0.78.

The target in assay [2] is T2, TREK-2 (expressed in HEK293) (Mus musculus, UniProt Q8BUW1).
T2 construct: gene Kcnk10
T2 sequence (Q8BUW1 1-535): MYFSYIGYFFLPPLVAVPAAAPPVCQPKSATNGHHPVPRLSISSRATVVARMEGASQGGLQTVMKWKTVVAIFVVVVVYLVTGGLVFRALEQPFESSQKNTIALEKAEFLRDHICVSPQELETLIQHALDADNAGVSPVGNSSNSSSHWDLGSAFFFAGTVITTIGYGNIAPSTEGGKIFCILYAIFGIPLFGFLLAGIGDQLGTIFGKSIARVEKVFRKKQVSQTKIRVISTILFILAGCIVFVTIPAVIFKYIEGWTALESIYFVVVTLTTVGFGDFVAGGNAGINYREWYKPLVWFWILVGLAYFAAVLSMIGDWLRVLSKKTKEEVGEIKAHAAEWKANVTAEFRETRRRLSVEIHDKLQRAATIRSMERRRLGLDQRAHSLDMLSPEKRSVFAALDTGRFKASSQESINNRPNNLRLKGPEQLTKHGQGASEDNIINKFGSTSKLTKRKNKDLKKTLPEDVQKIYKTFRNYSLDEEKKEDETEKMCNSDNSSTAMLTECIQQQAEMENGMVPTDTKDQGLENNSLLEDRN
The assay can be described thus: patch clamp of transfected HEK293 cells, inhibition of riluzole-evoked current.

The compound `O=C1N(c2ccccc2)c2ccccc2C1(Cc1ccncc1)Cc1ccncc1` [linopirdine] had an IC50 in assay [1] of 310 ± 60 nM. Moreover, in assay [2] (HEK293, read-out: % inhibition at 300 nM), the inhibition at 0.3 µM was 65.5 ± 5.93%.
Turning to `O=C1c2ccccc2C(Cc2ccncc2)(Cc2ccncc2)c2ccccc21` [XE991], in assay [2] (HEK293, read-out: % inhibition at 1 μM), the inhibition at 1 µM came out at 73.8 ± 1.93%.
